{"source": "patent US8834929B2", "about": "“Drying of drug-containing particles” (Bend Research, Inc., priority 2006, dated 2014)", "key": {"[1]": {"assay": "Aqueous solubility of the drug", "type": "physicochemical"}, "[2]": {"assay": "In vitro dissolution test (microcentrifuge, PBS pH 6.5)", "type": "physicochemical", "conditions": "PBS pH 6.5, 290 mOsm/kg, 37° C., 3000 μg/mL Drug 3 if all dissolved; Dispersion 4 before secondary drying; crystalline drug alone", "description": "A sample of Dispersion 4 was evaluated before and after secondary drying in an in vitro dissolution test to determine the effect of drying on concentration enhancement. For this test, a sufficient amount of Dispersion 4 was added to microcentrifuge test tubes so that the concentration of Drug 3 would have been 3000 μg/mL had all of the drug had dissolved. The test was performed in duplicate. The tubes were placed in a 37° C. temperature-controlled chamber, and 1.8 mL PBS at pH 6.5 and 290 mOsm/kg was added to each tube. The samples were mixed using a vortex mixer for about 60 seconds. The samples were centrifuged at 13,000 G at 37° C. for 1 minute. The resulting supernatant solution was then sampled and diluted 1:6 (by volume) with methanol and then analyzed by high performance liquid chromatography (HPLC). The contents of each tube were mixed on the vortex mixer and allowed to stand undisturbed at 37° C. until the next sample was taken. Samples were collected at 4, 10, 20, 40, 90, and 1200 minutes. For comparison, crystalline Drug 3 alone was tested using the same procedures.\nThe concentrations of drug obtained in these samples were used to determine the maximum concentration of drug (MDC90) and the area under the concentration-versus-time curve (AUC90) during the initial 90 minutes."}}}
{"smiles": "O=C(N[C@@H](Cc1ccccc1)[C@H](O)C(=O)N1C[C@@H](O)[C@@H](O)C1)c1cc2cc(Cl)ccc2[nH]1", "note": "[Drug 1, 5-chloro-1H-indole-2-carboxylic acid [(1S)-benzyl-(2R)-hydroxy-3-((3R,4S)-dihydroxy-pyrrolidin-1-yl-)-3-oxypropyl]amide]", "values": [{"measurement": "solubility", "setting": "[1]", "value": "~80", "unit": "µg/mL"}]}
{"smiles": "CCOC(=O)N1c2ccc(C(F)(F)F)cc2[C@@H](N(Cc2cc(C(F)(F)F)cc(C(F)(F)F)c2)C(=O)OC)C[C@H]1CC", "note": "[Drug 2, torcetrapib, reference compound]", "values": [{"measurement": "solubility", "setting": "[1]", "value": "< 0.1", "unit": "µg/mL"}]}
{"smiles": "C=CCNC(=O)[C@H]1N(C(=O)[C@@H](O)[C@H](Cc2ccccc2)NC(=O)c2cccc(O)c2C)CSC1(C)C", "note": "[Drug 3, (4R)—N-allyl-3-{(2S,3S)-2-hydroxy-3-[(3-hydroxy-2-methylbenzoyl)amino]-4-phenylbutanoyl}-5,5-dimethyl-1,3-thiazolidine-4-carboxamide]", "values": [{"measurement": "solubility", "setting": "[1]", "value": "~1600", "unit": "µg/mL"}, {"measurement": "AUC90 (area under the concentration-versus-time curve during the initial 90 minutes)", "setting": "[2]", "value": 9200, "unit": "µg·min/mL"}, {"measurement": "MDC90 (maximum concentration of drug during the initial 90 minutes)", "setting": "[2]", "value": 112, "unit": "µg/mL"}]}
